Assay results from the NIST ThermoML archive (doi:10.1021/je900715y).
Numbers after ± are expanded uncertainties.

Experiment: xn = mol fraction of the nth substance listed
Details: 101.3 kPa, Liquid

CCC(C)O (stereo not given) [butan-2-ol] + CCCCCCC
mass density [kg/m3]
Details | 288.15 K | 293.15 K | 298.15 K | 303.15 K | 308.15 K | 313.15 K | 318.15 K | 323.15 K
x1 = 0.05 | 691.106 ± 0.63 | 686.813 ± 0.64 | 682.487 ± 0.65 | 678.127 ± 0.65 | 673.731 ± 0.66 | 669.301 ± 0.67 | 664.835 ± 0.67 | 660.336 ± 0.68
x1 = 0.1 | 694.641 ± 0.63 | 690.325 ± 0.64 | 685.97 ± 0.65 | 681.576 ± 0.65 | 677.138 ± 0.66 | 672.659 ± 0.66 | 668.131 ± 0.67 | 663.562 ± 0.68
x1 = 0.15 | 698.486 ± 0.63 | 694.158 ± 0.64 | 689.789 ± 0.64 | 685.376 ± 0.65 | 680.913 ± 0.66 | 676.402 ± 0.66 | 671.84 ± 0.67 | 667.23 ± 0.68
x1 = 0.2003 | 702.573 ± 0.63 | 698.236 ± 0.63 | 693.854 ± 0.64 | 689.427 ± 0.65 | 684.946 ± 0.65 | 680.415 ± 0.66 | 675.83 ± 0.67 | 671.188 ± 0.67
x1 = 0.3016 | 711.547 ± 0.62 | 707.194 ± 0.62 | 702.791 ± 0.63 | 698.341 ± 0.64 | 693.835 ± 0.65 | 689.275 ± 0.65 | 684.65 ± 0.66 | 679.969 ± 0.67
x1 = 0.4004 | 721.346 ± 0.61 | 716.97 ± 0.62 | 712.546 ± 0.62 | 708.073 ± 0.63 | 703.542 ± 0.64 | 698.952 ± 0.64 | 694.299 ± 0.65 | 689.584 ± 0.66
x1 = 0.5002 | 732.429 ± 0.6 | 728.035 ± 0.61 | 723.591 ± 0.62 | 719.095 ± 0.62 | 714.54 ± 0.63 | 709.925 ± 0.64 | 705.243 ± 0.64 | 700.502 ± 0.65
x1 = 0.5999 | 744.751 ± 0.59 | 740.362 ± 0.6 | 735.917 ± 0.61 | 731.411 ± 0.61 | 726.839 ± 0.62 | 722.202 ± 0.63 | 717.496 ± 0.63 | 712.72 ± 0.64
x1 = 0.65 | 751.547 ± 0.59 | 747.174 ± 0.6 | 742.739 ± 0.6 | 738.239 ± 0.61 | 733.67 ± 0.61 | 729.03 ± 0.62 | 724.317 ± 0.63 | 719.533 ± 0.63
x1 = 0.72 | 761.59 ± 0.58 | 757.255 ± 0.59 | 752.851 ± 0.59 | 748.373 ± 0.6 | 743.821 ± 0.61 | 739.19 ± 0.61 | 734.479 ± 0.62 | 729.69 ± 0.63
x1 = 0.8 | 774.103 ± 0.57 | 769.827 ± 0.58 | 765.479 ± 0.59 | 761.053 ± 0.59 | 756.541 ± 0.6 | 751.943 ± 0.6 | 747.257 ± 0.61 | 742.488 ± 0.62
x1 = 0.8499 | 782.463 ± 0.57 | 778.238 ± 0.57 | 773.935 ± 0.58 | 769.552 ± 0.59 | 765.08 ± 0.59 | 760.519 ± 0.6 | 755.863 ± 0.6 | 751.116 ± 0.61
x1 = 0.8995 | 791.187 ± 0.56 | 787.015 ± 0.57 | 782.767 ± 0.57 | 778.434 ± 0.58 | 774.01 ± 0.59 | 769.495 ± 0.59 | 764.879 ± 0.6 | 760.166 ± 0.6
x1 = 0.9501 | 800.691 ± 0.56 | 796.583 ± 0.56 | 792.396 ± 0.57 | 788.125 ± 0.57 | 783.761 ± 0.58 | 779.299 ± 0.59 | 774.738 ± 0.59 | 770.073 ± 0.6
x1 = 1 | 810.689 ± 0.55 | 806.646 ± 0.56 | 802.528 ± 0.56 | 798.326 ± 0.57 | 794.03 ± 0.57 | 789.632 ± 0.58 | 785.117 ± 0.58 | 780.515 ± 0.59
